# Experimental data published in patent US12227509B2, “Dihydropyrazolopyrazinone derivative having MGAT2 inhibitory activity” (Shionogi & Co., Ltd., priority 2019, dated 2025).
# Tests used:
# [1] = target: hERG (IKr) (Homo sapiens (Human), UniProt Q12809); test: hERG test; type: cell-based; conditions: CHO cells expressing hERG channel, pH 7.4, 10 μmol/L of test compound, read-out: % inhibition of hERG tail peak current (IKr)
# Excerpt: For the purpose of assessing risk of an electrocardiogram QT interval prolongation of the compound of the present invention, effects of the compound of the present invention on delayed rectifier K^+ current (IKr), which plays an important role in the ventricular repolarization process, was studied using CHO cells expressing human ether-a-go-go related gene (hERG) channel.
# After a cell was retained at a membrane potential of −80 mV by whole cell patch clamp method using an automated patch clamp system (QPatch; Sophion BIoscience A/S), IKr induced by application of a leak potential of −50 mV followed by depolarization pulse stimulation at +20 mV for 2 seconds and, further, repolarization pulse stimulation at −50 mV for 2 seconds, was recorded. […] From the recording IKr, an absolute value of the tail peak current was measured based on the current value at the resting membrane potential using analysis software (Falster Patch; Sophion Bioscience A/S). Further, the % inhibition of tail peak current for the compound of the present invention relative to the tail peak current after application of the vehicle is calculated to assess influence of the compound of the present invention on IKr.
# [2] = BA test (oral absorption); type: in vivo; conditions: plasma; mice or SD rats; from AUCs of oral and intravenous administration
# Protocol: Materials and methods for experiments to evaluate oral absorption
# (1) Animals: the mice or SD rats were used.
# (2) Breeding conditions: the mice or SD rats were allowed to freely take solid food and sterilized tap water.
# (3) Setting of dosage and grouping: Oral administration and intravenous administration were performed with a predetermined dosage. Grouping was set as below. (dosage changed per compound)
# Oral administration: 1 to 30 mg/kg (n=2 to 3)
# Intravenous administration: 0.5 to 10 mg/kg (n=2 to 3)
# (4) Preparation of administration solution: Oral administration was performed in the form of a suspension or a solution. Intravenous administration was performed after solubilization.
# (5) Routes of administration: Oral administration was performed mandatory into the stomach by oral sonde. Intravenous administration was performed from caudal vein or femoral vein by syringes with needle.
# (6) Evaluation items: blood was collected over time, and the plasma concentration of the compound of the present invention was measured by LC/MS/MS.
# (7) Statistical analysis: regarding the transition of the plasma concentration of the compound of the present invention, the area under the plasma concentration-time curve (AUC) was calculated by non-linear least squares program WinNonlin (registered trademark), and the bioavailability (BA) of the compound of the present invention was calculated from the AUCs of the oral administration group and intravenous administration group.
# [3] = Solubility test (1% DMSO addition, pH 6.8 artificial intestinal juice); type: physicochemical; conditions: kinetic from dmso stock, 16 hours at 25° C.
# Protocol: The solubility of the compound of the present invention was determined under 1% DMSO addition conditions. 10 mmol/L solution of the compound was prepared with DMSO, and 6 μL of the solution of the compound of the present invention was added to 594 μL of pH 6.8 artificial intestinal juice (118 mL of 0.2 mol/L NaOH test solution and water were added to 250 mL of 0.2 mol/L potassium dihydrogen phosphate test solution to reach 1000 mL). The mixture was left standing for 16 hours at 25° C., and the mixture was vacuum-filtered. The filtrate was two-fold diluted with methanol/water=1/1 (V/V), and the compound concentration in the filtrate was measured with HPLC or LC/MS/MS by the absolute calibration method. The dilution concentration and the dilution solvent were changed as necessary.
# [4] = target: recombinant human MGAT2 (Homo sapiens (Human), UniProt Q3SYC2); test: Measurement of human MGAT2 inhibitory activity; type: biochemical; conditions: concentration exhibiting 50% enzyme inhibition; recombinant human MGAT2, 2-Oleoylglycerol/Oleoyl-CoA
# Chain of recombinant human MGAT2 (Q3SYC2 whole entry): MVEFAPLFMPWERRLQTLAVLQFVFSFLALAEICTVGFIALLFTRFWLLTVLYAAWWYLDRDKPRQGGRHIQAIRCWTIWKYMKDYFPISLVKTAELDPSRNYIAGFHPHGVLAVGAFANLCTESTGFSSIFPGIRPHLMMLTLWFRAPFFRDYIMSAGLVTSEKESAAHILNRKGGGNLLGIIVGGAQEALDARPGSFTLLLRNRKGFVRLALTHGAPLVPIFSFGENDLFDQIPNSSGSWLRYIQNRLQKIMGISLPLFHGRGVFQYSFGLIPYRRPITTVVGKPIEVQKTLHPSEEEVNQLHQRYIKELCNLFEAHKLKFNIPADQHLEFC
# How it was run: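 Membrane fraction of baculovirus-infected Sf-9 cells expressing N-terminally Flag-tagged full-length human MGAT2, in 100 mmol/L phosphate pH 7.4 with 2 mmol/L DTT. The substrate solution held 30 μmol/L 2-oleoylglycerol and 10 μmol/L oleoyl-CoA. After 1 h at room temperature, diolein/diolein-d5 ratio was read by ESI Q-TOF MS and % inhibition derived against enzyme and no-enzyme controls.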
# [5] = Powder solubility test; type: physicochemical; conditions: pH 6.8, aqueous buffer, thermodynamic from solid, JP-2 solution, 37° C.
# Protocol: Appropriate quantity of the compound of the present invention was put in suitable containers. 200 μL of JP-1 solution (water was added to 2.0 g of sodium chloride and 7.0 mL of hydrochloric acid to reach 1000 mL), 200 μL of JP-2 solution (500 mL of water was added to 500 mL of phosphate buffer (pH 6.8)) or 20 mmol/L sodium taurocholate (TCA)/JP-2 solution (JP-2 solution was added to 1.08 g of TCA to reach 100 mL) was independently added to each container. When total amount was dissolved after adding the test reagent, the compound of the present invention was added appropriately. After sealing and shaking at 37° C. for 1 hour, solution was filtrated and 100 μL of methanol was added to 100 μL of each filtrate to dilute two-fold. The dilution ratio and the dilution solvent were changed as necessary. After checking that there was no bubble and deposit, the container was sealed and shaken. The compound of the present invention was measured using HPLC by absolute calibration curve method.
# Chain of hERG (IKr) (Q12809 whole entry): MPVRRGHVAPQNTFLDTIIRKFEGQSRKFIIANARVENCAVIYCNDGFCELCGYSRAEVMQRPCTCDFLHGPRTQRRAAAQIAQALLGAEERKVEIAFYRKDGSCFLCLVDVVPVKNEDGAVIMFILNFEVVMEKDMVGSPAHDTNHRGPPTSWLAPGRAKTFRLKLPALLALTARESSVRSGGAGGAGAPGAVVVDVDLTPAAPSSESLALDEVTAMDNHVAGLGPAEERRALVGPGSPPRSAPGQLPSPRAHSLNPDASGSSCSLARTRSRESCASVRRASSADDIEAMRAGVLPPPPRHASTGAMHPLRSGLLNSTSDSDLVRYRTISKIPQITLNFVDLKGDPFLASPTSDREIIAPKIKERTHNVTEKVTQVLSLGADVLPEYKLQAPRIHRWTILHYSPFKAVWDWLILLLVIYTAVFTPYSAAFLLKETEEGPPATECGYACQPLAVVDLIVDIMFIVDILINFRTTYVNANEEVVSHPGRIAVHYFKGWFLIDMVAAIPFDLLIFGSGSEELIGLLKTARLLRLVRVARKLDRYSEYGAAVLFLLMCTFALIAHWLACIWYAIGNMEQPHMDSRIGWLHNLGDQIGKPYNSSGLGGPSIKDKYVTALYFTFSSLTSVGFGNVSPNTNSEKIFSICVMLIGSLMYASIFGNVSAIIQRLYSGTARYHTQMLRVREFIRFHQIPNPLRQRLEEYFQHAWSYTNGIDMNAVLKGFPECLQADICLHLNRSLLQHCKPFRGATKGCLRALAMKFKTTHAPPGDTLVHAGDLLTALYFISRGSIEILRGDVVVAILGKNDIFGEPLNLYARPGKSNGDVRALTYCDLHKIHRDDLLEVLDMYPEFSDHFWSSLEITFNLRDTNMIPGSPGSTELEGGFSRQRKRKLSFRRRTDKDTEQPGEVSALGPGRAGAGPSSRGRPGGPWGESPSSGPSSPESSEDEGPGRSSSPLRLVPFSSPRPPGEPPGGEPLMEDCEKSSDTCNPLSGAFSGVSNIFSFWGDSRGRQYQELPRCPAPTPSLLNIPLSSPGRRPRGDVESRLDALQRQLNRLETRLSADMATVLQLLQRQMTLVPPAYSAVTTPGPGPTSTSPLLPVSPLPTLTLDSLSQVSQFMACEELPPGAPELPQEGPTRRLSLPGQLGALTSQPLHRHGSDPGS
SMILES,bioavailability [2],solubility at 16 h [3],IC50 [4],solubility at 1 h [5],"inhibition at 10 min, 10 μmol/L [1]"
Cc1ccc(-c2nn3c(c2NC(=O)CS(C)(=O)=O)C(=O)N[C@@]2(CCc4cc(OCC(F)(F)F)ccc42)C3)cc1 [Compound I-20],63.4%,–,–,–,27.8%
Cc1ccc(-c2nn3c(c2NC(=O)CS(C)(=O)=O)C(=O)N[C@@]2(CCc4cc(OCC(F)(F)F)ccc42)C3)nc1 [Compound I-6],55.1%,> 50 µM,–,–,–
N#Cc1ccc(-c2nn3c(c2NC(=O)CC(F)(F)F)C(=O)N[C@@]2(CCc4cc(OCC(F)(F)F)ccc42)C3)nc1 [Compound I-14],–,41.8 µM,46.1 nM,–,25.5%

# Second part, led by results:
bioavailability [2],solubility at 16 h [3],IC50 [4],solubility at 1 h [5],SMILES,"inhibition at 10 min, 10 μmol/L [1]"
88.2%,> 50 µM,–,–,CS(=O)(=O)CC(=O)Nc1c(CCC(F)(F)F)nn2c1C(=O)N[C@@]1(CCc3cc(OCC(F)(F)F)ccc31)C2 [Compound I-58],–
53.1%,> 50 µM,–,8.64 µM,CS(=O)(=O)CC(=O)Nc1c(CCC2CC2)nn2c1C(=O)N[C@@]1(CCc3cc(OCC(F)(F)F)ccc31)C2 [Compound I-46],–
